# Measured values from US6667335B2, “Imidazole derivatives” (Hoffmann-La Roche Inc., priority 2001, dated 2003).
# Where a name gives a salt, the structure may show the parent alone.
row,SMILES,melting point
1,Cc1nccn1Cc1cn(-c2ccc([N+](=O)[O-])cc2)cn1.Cl.Cl,> 250 °C
2,CCc1nccn1Cc1cn(-c2ccc([N+](=O)[O-])cc2)cn1.Cl.Cl,196 to 197 °C
3,Cl.Cl.O=[N+]([O-])c1ccc(-n2cnc(Cn3ccnc3)c2)cc1,245 to 246 °C
4,Cc1cnc(C)n1Cc1cn(-c2ccc(Cl)c(Cl)c2)cn1.Cl.Cl,> 250 °C
5,Cc1nccn1Cc1ccn(-c2ccc(Cl)c(Cl)c2)n1.Cl,204 to 205 °C
6,CSc1nccn1Cc1cn(-c2ccc(Cl)c(C)c2)cn1.Cl.Cl,202 to 204 °C (dec.)
7,CSc1cccc(-n2cnc(Cn3ccnc3C)c2)c1.Cl.Cl,> 200 °C (dec.)
8,CCc1nccn1Cc1cn(-c2cccc(OC(F)(F)F)c2)cn1.Cl.Cl,237 to 239 °C
9,Cl.Cl.FC(F)(F)Oc1cccc(-n2cnc(Cn3ccnc3)c2)c1,233 to 234 °C
10,Cl.Cl.Clc1cccc(-n2cnc(Cn3ccnc3)c2)c1,> 200 °C (dec.)
11,Cl.Cl.Fc1cc(-n2cnc(Cn3ccnc3)c2)cc(C(F)(F)F)c1,233 to 234 °C
12,Cl.Cl.c1cn(Cc2cn(-c3ccc4c(c3)CCC4)cn2)cn1,214 to 216 °C
13,COc1cc(-n2cnc(Cn3ccnc3)c2)cc(C(F)(F)F)c1.Cl.Cl,244 to 246 °C
14,CCc1nccn1Cc1cn(-c2cccc(C(C)(C)C)c2)cn1.Cl.Cl,205 °C (dec.)
15,CC(C)(C)c1cccc(-n2cnc(Cn3ccnc3)c2)c1.Cl.Cl,> 200 °C (dec.)
16,CCc1nccn1Cc1cn(-c2ccc(OC(F)(F)F)c(Cl)c2)cn1.Cl.Cl,> 250 °C
17,Cl.Cl.FC(F)(F)Oc1ccc(-n2cnc(Cn3ccnc3)c2)cc1Cl,212 to 213 °C
18,CCc1nccn1Cc1cn(-c2ccc(C)c(C)c2)cn1.Cl.Cl,> 250 °C
19,Cc1nccn1Cc1cn(-c2cccc(OC(F)F)c2)cn1.Cl.Cl,220 to 222 °C
20,Cl.Cl.FC(F)Oc1cccc(-n2cnc(Cn3ccnc3)c2)c1,205 to 206 °C
21,CCc1nccn1Cc1cn(-c2cccc(C(F)F)c2)cn1.Cl.Cl,219 to 220 °C
22,Cl.Cl.FC(F)c1cccc(-n2cnc(Cn3ccnc3)c2)c1,216 to 217 °C
23,CNc1nccn1Cc1cn(-c2ccc(Cl)c(Cl)c2)cn1.Cl,> 250 °C
24,CNc1nccn1Cc1ncn(-c2ccc(Cl)c(Cl)c2)c1CO.Cl,> 180 °C (dec.)
25,Cc1nccn1Cc1cn(-c2cc(F)cc(Br)c2)cn1.Cl.Cl,> 200 °C (dec.)

row,SMILES,melting point
1,Cc1ccc(-n2cnc(Cn3ccnc3C)c2)cc1C.Cl.Cl,249 to 251 °C
2,Cl.Cl.Fc1cc(Br)cc(-n2cnc(Cn3ccnc3)c2)c1,> 200 °C (dec.)
3,CCc1nccn1Cc1cn(-c2ccc3c(c2)OC(F)(F)O3)cn1.Cl.Cl,237 to 239 °C (dec.)
4,Cc1nccn1Cc1cn(-c2ccc3c(c2)OC(F)(F)O3)cn1.Cl.Cl,> 250 °C
5,CCc1nccn1Cc1cn(-c2ccc(SC(F)(F)F)c(Cl)c2)cn1.Cl.Cl,214 to 215 °C
6,Cc1nccn1Cc1cn(-c2ccc(SC(F)(F)F)c(Cl)c2)cn1.Cl.Cl,195 to 198 °C
7,Cl.Cl.FC(F)(F)Sc1ccc(-n2cnc(Cn3ccnc3)c2)cc1Cl,244 to 245 °C
8,Cc1nccn1Cc1cn(-c2cc3ccccc3cn2)cn1.Cl.Cl,> 250 °C
9,CCc1nccn1Cc1cn(-c2ccc(OC(F)(F)F)cc2)cn1.Cl.Cl,216 to 218 °C
10,CCc1nccn1Cc1cn(-c2ccc(SC(F)(F)F)cc2)cn1.Cl.Cl,183 to 185 °C
11,Cc1nccn1Cc1cn(-c2ccc(SC(F)(F)F)cc2)cn1.Cl.Cl,249 to 250 °C
12,Cc1ccc(-n2cnc(Cn3ccnc3C)c2)cc1.Cl.Cl,> 250 °C
13,Cc1ccc(-n2cnc(Cn3ccnc3)c2)cc1.Cl.Cl,228 to 229 °C
14,CCc1nccn1Cc1cn(-c2ccc(F)c(C)c2)cn1.Cl.Cl,210 to 212 °C
15,Cc1cc(-n2cnc(Cn3ccnc3)c2)ccc1F.Cl.Cl,242 to 243 °C
16,CCc1nccn1Cc1cn(-c2ccc(SC)cc2)cn1.Cl.Cl,161 to 162 °C
17,CSc1ccc(-n2cnc(Cn3ccnc3)c2)cc1.Cl.Cl,233 to 234 °C
18,Cc1nccn1Cc1cn(-c2cccc(C(F)(F)F)c2)cn1.Cl.Cl,218 to 220 °C
19,CCc1nccn1Cc1cn(-c2cccc(C(F)(F)F)c2)cn1.Cl.Cl,216 to 218 °C
20,CCc1nccn1Cc1cn(-c2ccc(F)c(C(F)(F)F)c2)cn1.Cl.Cl,> 238 °C (dec.)
21,Cl.Cl.Fc1ccc(-n2cnc(Cn3ccnc3)c2)cc1C(F)(F)F,> 246 °C (dec.)
22,CCc1nccn1Cc1cn(-c2ccc(C)c(C(F)(F)F)c2)cn1.Cl.Cl,> 250 °C
23,Cc1ccc(-n2cnc(Cn3ccnc3)c2)cc1C(F)(F)F.Cl.Cl,> 250 °C
24,CCc1nccn1Cc1cn(-c2ccc(Cl)c(OC)c2)cn1.Cl.Cl,244 to 246 °C (dec.)
25,COc1cc(-n2cnc(Cn3ccnc3C)c2)ccc1Cl.Cl.Cl,> 250 °C

row,SMILES,melting point
1,COc1cc(-n2cnc(Cn3ccnc3)c2)ccc1Cl.Cl.Cl,221 to 222 °C
2,COc1cc(-n2cnc(Cn3ccnc3C)c2)ccc1F.Cl.Cl,> 220 °C (dec.)
3,COc1cc(-n2cnc(Cn3ccnc3)c2)ccc1F.Cl.Cl,174 to 178 °C
4,CCc1nccn1Cc1cn(-c2ccc(Cl)cc2)cn1.Cl.Cl,200 to 201 °C
5,Cl.Cl.Clc1ccc(-n2cnc(Cn3ccnc3)c2)cc1Cl,> 250 °C
6,Cl.Cl.Clc1ccc(-n2cnc(Cn3ccnc3)c2)cc1,228 to 229 °C
7,CCc1nccn1Cc1cn(-c2ccc3c(c2)OCO3)cn1.Cl.Cl,> 250 °C
8,Cl.Cl.c1cn(Cc2cn(-c3ccc4c(c3)OCO4)cn2)cn1,197 to 198 °C
9,Cc1ccc(-n2cnc(Cn3ccnc3C)c2)cc1F.Cl.Cl,> 250 °C
10,CCc1nccn1Cc1cn(-c2ccc(C)c(F)c2)cn1.Cl.Cl,> 250 °C
11,Cc1ccc(-n2cnc(Cn3ccnc3)c2)cc1F.Cl.Cl,223 to 224 °C
12,COc1ccc(-n2cnc(Cn3ccnc3C)c2)cc1Cl.Cl.Cl,240 to 241 °C
13,COc1ccc(-n2cnc(Cn3ccnc3)c2)cc1Cl.Cl.Cl,245 to 246 °C
14,Cc1nccn1Cc1cn(-c2ccc(Cl)cc2F)cn1.Cl.Cl,235 to 236 °C
15,CCc1nccn1Cc1cn(-c2ccc(Cl)cc2F)cn1.Cl.Cl,248 to 249 °C
16,Cl.Cl.Fc1cc(Cl)ccc1-n1cnc(Cn2ccnc2)c1,> 212 °C (dec.)
17,CCc1nccn1Cc1cn(-c2ccc(Br)cc2)cn1.Cl.Cl,> 250 °C
18,Brc1ccc(-n2cnc(Cn3ccnc3)c2)cc1.Cl.Cl,237 to 239 °C
19,CCc1nccn1Cc1cn(-c2ccc(OC(F)F)cc2)cn1.Cl.Cl,199 to 200 °C
20,Cc1nccn1Cc1cn(-c2ccc(OC(F)F)cc2)cn1.Cl.Cl,228 to 229 °C
21,CCc1nccn1Cc1cn(-c2ccc(OCc3ccccc3)cc2)cn1.Cl.Cl,222 to 223 °C
22,Cl.Cl.c1ccc(COc2ccc(-n3cnc(Cn4ccnc4)c3)cc2)cc1,224 to 225 °C
23,CCc1nccn1Cc1cn(-c2ccc(C)c(OC)c2)cn1.Cl.Cl,> 250 °C
24,COc1cc(-n2cnc(Cn3ccnc3)c2)ccc1C.Cl.Cl,249 to 251 °C
25,CCc1nccn1Cc1cn(-c2ccc(C(F)(F)F)cc2)cn1.Cl.Cl,240 to 242 °C

row,SMILES,melting point
1,Cc1nccn1Cc1cn(-c2ccc(C(F)(F)F)cc2)cn1.Cl.Cl,246 to 248 °C
2,Cl.Cl.FC(F)(F)c1ccc(-n2cnc(Cn3ccnc3)c2)cc1,220 to 222 °C
3,CCc1nccn1Cc1cn(-c2ccc3c(c2)COC3)cn1.Cl.Cl,> 108 °C (dec.)
4,Cc1nccn1Cc1cn(-c2ccc3c(c2)COC3)cn1.Cl.Cl,> 250 °C
5,COc1ccc(-n2cnc(Cn3ccnc3C)c2)cc1F.Cl.Cl,238 to 240 °C
6,Cc1ncn(Cc2cn(-c3ccc(Cl)c(Cl)c3)cn2)c1C.Cl.Cl,> 250 °C
7,CCc1nccn1Cc1cn(-c2ccc(OC)c(F)c2)cn1.Cl.Cl,218 to 220 °C
8,COc1ccc(-n2cnc(Cn3ccnc3C)c2)cc1.Cl.Cl,> 250 °C
9,CCc1nccn1Cc1cn(-c2cccc(OC)c2)cn1.Cl.Cl,246 to 248 °C
10,COc1cccc(-n2cnc(Cn3ccnc3C)c2)c1.Cl.Cl,242 to 243 °C
11,COc1cccc(-n2cnc(Cn3ccnc3)c2)c1.Cl.Cl,219 to 220 °C
12,COc1ccc(-n2cnc(Cn3ccnc3C)c2)cc1C(F)(F)F.Cl.Cl,> 222 °C (dec.)
13,CCc1nccn1Cc1cn(-c2ccc(OC)c(C(F)(F)F)c2)cn1.Cl.Cl,> 226 °C (dec.)
14,CCc1nccn1Cc1cn(-c2ccc(C)c(Cl)c2)cn1.Cl.Cl,178 to 179 °C
15,Cl.Cl.Clc1ccc(-n2cnc(Cn3ccnc3-c3ccccc3)c2)cc1Cl,197 to 198 °C
16,CCc1nccn1Cc1cn(-c2ccc(Cl)c(C(F)(F)F)c2)cn1.Cl.Cl,179 to 180 °C
17,Cc1nccn1Cc1cn(-c2ccc(Cl)c(C(F)(F)F)c2)cn1.Cl.Cl,> 250 °C
18,Cl.Cl.FC(F)(F)c1cc(-n2cnc(Cn3ccnc3)c2)ccc1Cl,> 250 °C
19,Cl.Cl.Fc1ccc(-n2cnc(Cn3ccnc3)c2)cc1Cl,210 to 212 °C
20,CCc1nccn1Cc1cn(-c2ccc(-c3ccccc3)cc2)cn1.Cl.Cl,248 to 253 °C
21,Cc1nccn1Cc1cn(-c2ccc(-c3ccccc3)cc2)cn1.Cl.Cl,169 to 175 °C
22,CCc1nccn1Cc1cn(-c2ccc(C(C)C)c(C)c2)cn1.Cl.Cl,> 180 °C (dec.)
23,Cc1ccc(-n2cnc(Cn3ccnc3)c2)cc1C (as salt: hydrochloride) [Example 21],218 to 219 °C
24,CSc1ccc(-n2cnc(Cn3ccnc3C)c2)cc1 (as salt: hydrochloride) [Example 27],242 to 243 °C
